The values that follow come from patent US7094773B2, “LTA4 hydrolase inhibitors” (Institut National de la Santa et de la rescherche Medicale …, priority 1999, dated 2006).

pKi: −log10 of the molar value. Structures can show the parent of a compound that is named as a salt.

One series concerns the target T1, human recombinant LTA4 hydrolase (Homo sapiens, UniProt P09960).
T1 construct: made in house; host or cells: E. coli JM109
T1 sequence (P09960 1-611): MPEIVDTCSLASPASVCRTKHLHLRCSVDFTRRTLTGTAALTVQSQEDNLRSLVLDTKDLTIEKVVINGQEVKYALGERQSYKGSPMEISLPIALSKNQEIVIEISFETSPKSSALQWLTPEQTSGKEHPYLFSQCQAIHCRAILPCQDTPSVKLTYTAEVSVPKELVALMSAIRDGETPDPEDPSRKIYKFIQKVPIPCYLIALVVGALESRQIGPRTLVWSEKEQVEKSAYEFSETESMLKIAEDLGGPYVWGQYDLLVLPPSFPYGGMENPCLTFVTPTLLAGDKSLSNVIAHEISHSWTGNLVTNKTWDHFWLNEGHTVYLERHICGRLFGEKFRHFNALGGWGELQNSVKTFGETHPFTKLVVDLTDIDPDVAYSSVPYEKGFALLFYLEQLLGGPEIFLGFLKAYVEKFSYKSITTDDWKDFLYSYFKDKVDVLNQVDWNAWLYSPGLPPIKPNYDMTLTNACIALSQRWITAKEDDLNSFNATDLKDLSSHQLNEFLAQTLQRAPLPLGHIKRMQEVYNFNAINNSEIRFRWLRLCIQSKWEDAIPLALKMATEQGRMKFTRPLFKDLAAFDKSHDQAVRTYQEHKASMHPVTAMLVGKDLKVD
Nature of the series: Inhibition of the aminopeptidase activity of recombinant LTA4 hydrolase (fluorimetric, Ala-AMC substrate). In kind it is biochemical. The conditions noted are these: in vitro. As for the experimental part:
The compounds were tested using human recombinant LTA4 hydrolase (Minami et al., FEBS Letters, 1988, 229: 279). The LTA4 hydrolase expressed by E. coli JM109 is purified mainly according to Minami et al., (J. Biol. Chem., 1987, 262: 13873).
The inhibition of the aminopeptidase activity of the enzyme is measured by means of a fluorimetric method in 96-well microplates. The recombinant enzyme (0.5 μg in 50 μl of 50 mM Tris-HCl pH 7.4) is preincubated for 10 minutes at 37° C. in the presence of inhibitor and of dithiothreitol (DTT, 10^−5 M). The substrate alanyl-amido-methylcoumarin (Ala-AMC, 25 μM-Tris HCl 50 mM, pH 7.4) is added and the incubation is continued for 15 minutes at 37° C. The release of AMC is measured by fluorimetry.
Usually pKi stands for the negative decadic logarithm of the Ki, by convention in mol/L. As for `NC(CCCCOc1ccc(Cc2ccccc2)cc1)C(=O)O` (racemic) [compound 51, 2-(RS)-amino-6-(4-benzylphenoxy)hexanoic acid hydrobromide], the negative-log Ki (pKi) is 7.49.

Test system in another series: not given
Assay: not given
Conditions: not given
One may read the melting point as the temperature of the solid-liquid transition. For `Br.NC(CCCCCOc1ccc(Cc2ccccc2)cc1)C(=O)O` (racemic), the melting point worked out at 100 °C.

`Br.NC(CCCCOc1ccc(-c2ccccc2)cc1)C(=O)O` (racemic): the melting point was found to be 185 °C.

In the case of `Br.NC(CCCCCCOc1ccc(Cc2ccccc2)cc1)C(=O)O` (racemic), the melting point is 120 °C.

Regarding `Br.NC(CCCCOc1ccc(Oc2ccccc2)cc1)C(=O)O` (racemic), the melting point amounted to 130 °C.

`Br.NC(CCCOc1ccc(Cc2ccccc2)cc1)C(=O)O` (racemic) registered a melting point of 199 °C.

Compound `Br.NC(CCCOc1ccc(Oc2ccccc2)cc1)C(=O)O` (racemic) showed a melting point of 162 °C.

As to `Br.CCCCCCOc1ccc(OCCCCC(N)C(=O)O)cc1` (racemic), the melting point was 135 °C.
